Assay results: patent publication US20180369203A1, “METHODS OF TREATING CANCER BY ADMINISTERING A MEK INHIBITOR IN COMBINATION WITH A PROTEASOME INHIBITOR” (The Jackson Laboratory, priority 2015, published 2018)

Key:
[1] = tested on: GR-GFP; assay: GR-GFP protein stability in HEK293T cells (immunoblotting); format: cell-based; details: 100 nM Bortezomib, 4 hrs
Description: This figure is related to FIG. 4. (A) HSF1 stabilizes GR-GFP proteins. Both GR-GFP and HA-Ub-K48 plasmids were co-transfected with LacZ or FLAG-HSF1 plasmids into HEK293T cells stably expressing scramble or HSF1-targeting shRNAs. HA-Ub-K48 plasmids encode a mutant ubiquitin that can be conjugated to protein substrates only via lysine 48. GFP-GR proteins were precipitated and ubiquitination was detected by anti-HA immunoblotting. (B) HSF1 maintains cellular chaperoning capacity. Denatured firefly luciferases were incubated with proteins extracted from HEK293T cells stably expressing scramble or HSF1-targeting shRNAs that were transfected with LacZ or FLAG-HSF1 plasmids (mean±SD, n=5, ANOVA). […] Levels of GFP and GR-GFP proteins were detected by immunoblotting. […] Following treatments with 20 μM U0126, 20 nM AZD6244, or 100 nM Bortezomib for 4 hrs, the chymotrypsin-like, trypsin-like, and caspase-like proteasomal activities in A2058 cells (D) and HEK293T cells (E) were measured in vitro using 25 μM Z-LLL-AMC, Boc-LRR-AMC, and Z-LLE-AMC substrates respectively (mean±SD, n=3, ANOVA). […] Lys48-specific protein ubiquitination was detected by immunoblotting in both detergent-soluble and -insoluble fractions. […] Lys48-specific protein ubiquitination was detected by immunoblotting in both detergent-soluble and -insoluble fractions of HEK293T cells that stably expressed scramble or MEK1/2-targeting shRNAs. […]

[2] = tested on: WM115 cells; assay: Lys48 ubiquitin immunostaining of aggregates in melanoma cells; format: cell-based, human; details: 20 nM AZD6244, 100 nM Bortezomib, or both, 24 hr
Method: FIGS. 5A-Y show MEK and proteasome inhibition provoke protein aggregation and amyloidogenesis. (A-B) WM115 cells treated with 20 nM AZD6244, 100 nM Bortezomib, or both for 24 hr were stained with Lys48-specific ubiquitin antibodies. Arrowheads mark ubiquitin-positive aggregates. Scale bar: 10 μm. Amounts of aggregates per cell were quantitated using ImageJ (median, n≥100, ANOVA). (C-F) Following transfection with polyQ79 plasmids alone or with both polyQ79 and HSF1^S326D plasmids for one day, HEK293T cells were treated with inhibitors as described in (A-B). Cells were either analyzed for aggregate size or stained with 10 μM ThT. (G) Treated tumor cell lines were stained with 10 μM ThT. Geometric means were used to calculate fold changes in ThT fluorescence intensity and the log 2(FC) values were presented as a heat map. (H) HEK293T cells were transfected with LacZ or polyQ79 plasmid. Following treatments, AOs were quantitated by ELISA using A11 antibodies (mean±SD, n=3, ANOVA). (I) Intrinsic AOs were detected in human tumor cell lines (mean±SD, n=3, ANOVA). […] Amyloids were quantitated by ELISA (mean±SD, n=3, Student's t-test). […] AF formation was monitored by ThT binding (mean±SD, n=3, ANOVA). […] Amyloids were quantitated (mean±SD, n=3, Student's t-test). […] Viable cells were quantitated by CellTiter® blue (mean±SD, n=6, Student's t-test). […] Viable cells were quantitated (mean±SD, n=6, ANOVA). […]

## CC(C)C[C@H](NC(=O)[C@H](Cc1ccccc1)NC(=O)c1cnccn1)B(O)O [Bortezomib, bortezomib]
[1]
  GR-GFP protein level: caused GR-GFP accumulation
[2]
  ubiquitin-containing aggregates (punctate foci): bright fluorescent punctate foci emerged
